In brackets after ≈: the same amount, converted by molar mass. Read-outs that look alike come from different tables or passages of the source. Numbered stars: 1 amine (or outer) side, 2 acyl side, 3 side chain; on linkers, the order of the positions; unused ones are H or OH. Square brackets hold non-standard residues; d marks the D form. Peptide text beside a SMILES is read from it. X2 = C[C@H](CCCc1cccc(N2CCOCC2)n1)[C@@H](O)[C@H](C(=O)[*:2])N(C)[*:1]; X5 = C[C@H](CCN1CCS(=O)(=O)CC1)[C@@H](O)[C@H](C(=O)[*:2])N(C)[*:1]; X3 = C[C@H](CCN1CC2CCC(C1)O2)[C@@H](O)[C@H](C(=O)[*:2])N(C)[*:1]; X1 = Cc1cccc(CCC[C@@H](C)[C@@H](O)[C@H](C(=O)[*:2])N(C)[*:1])n1; X4 = C[C@H](C/C=C/c1ncccn1)[C@@H](O)[C@H](C(=O)[*:2])N(C)[*:1]; d(aThr) = C[C@@H](O)[C@@H](N)C(=O)O; NMeL = CN[C@@H](CC(C)C)C(=O)O; dNMeL = CN[C@H](CC(C)C)C(=O)O; dNMeV = CN[C@@H](C(=O)O)C(C)C; Hiv = CC(C)[C@H](O)C(=O)O; Sar = CNCC(=O)O
Legend:
[1] = target: cyclophilin D (Cyp D) (Homo sapiens, UniProt P30405); experiment: Protease-free PPIase assay, cyclophilin D; type: biochemical
Method in brief: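 Cis-trans isomerization of a succinimide-peptide substrate (60 µM final) by 2 nM enzyme was followed at 330 nm in 35 mM HEPES pH 7.8 with 50 µM DTT, stirred at 10.0 °C, DMSO ≤0.5%. First-order rate constants minus background were fitted against inhibitor concentration to give Ki.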

[2] = target: T1, calcineurin/cyclophilin A (Homo sapiens, UniProt P62937+P63098+Q08209); experiment: Calcineurin phosphatase (CaN) assay in the presence of Cyp A; type: biochemical; conditions: inhibitor in 1:1 complex with Cyp A; read-out: CaN + CypA (IC50 in the calcineurin/cyclophilin A assay)
T1 construct: purchased Enzo Life Sciences (calcineurin, calmodulin); Sigma (CypA) BML-AK804; C3805
Description: **Calcineurin Phosphatase (CaN) Assay The calcineurin phosphatase assay is a means for estimating the immunosuppressive potential of a test compound. Calcineurin is a serine-threonine protein phosphatase that on activation dephosphorylates members of the nuclear factor of activated T cells (NFAT), which are important in T lymphocyte activation. […] To investigate the immunosuppressive potential of exemplary compounds of Formula 1, which are novel cycloundecadepsipeptide compounds, their ability to inhibit calcineurin activity was measured in the presence of Cyp A. The CaN assay kit used is based on a colorimetric assay for measuring calcineurin phosphatase activity, and it is commercially available (Enzo Life Sciences and Calbiochem). Calmodulin is also required for calcineurin activity and RH phosphopeptide is used as an efficient peptide substrate for calcineurin. […] The detection of free phosphate released is based on the classic Malachite green assay. Enzo Life Sciences CaN Assay Kit: BML-AK804 2× assay buffer: 100 mM Tris, pH7.5, 200 mM NaCl, 12 mM MgCl2, 1 mM DTT, 0.05% NP-40, 1 mM CaCl2 Calmodulin (Human, Recombinant): was thawed on ice, diluted 1:50 with 2× assay buffer, and then stored on ice. Calcineurin: was thawed quickly, stored on ice immediately, diluted 1:12.5 with 1× assay buffer, and then stored on ice. R-II Substrate: 915 μL ultrapure water (UPW) was added to the 1.5 mg vial substrate to give a final concentration of 0.75 mM. Inhibitors: 2.5 mM inhibitor in 100% DMSO. Cyp A: recombinant human CypA (Sigma C3805), 1 mg/ml; Recombinant 6-his tagged CypA prepared by the Univ. of Edinburgh was also used. […] Inhibitor dilutions: inhibitor compounds were diluted in UPW in polypropylene low-binding 96 well plates at 5x the final assay concentration. For samples ‘without Cyp A’, a 4-point dilution series of the inhibitor was prepared in duplicate to obtain a final assay concentration of 10, 1, 0.1 and 0.01 μM. […] Cs A inhibitor controls were also prepared to obtain a final concentration of 10 μM Cs A with and without 10 μM Cyp A. Assay Setup: using the half area 96 well plates supplied with the kit, 10 μl UPW was added to duplicate wells to provide the non-inhibited control. 10 μl of the inhibitor or the inhibitor/Cyp A complex was added to the appropriate sample wells. 25 μl of the 2× assay buffer with CaM was added to all wells, then 5 μl of CaN was added to all wells (40 U per well final concentration) except duplicate ‘no calcineurin blank’ wells to which 5 μL 1× assay buffer was added. […] The reaction was started by the addition of 10 μl RII-peptide (0.15 mM final concentration). The reaction was allowed to proceed at 30° C. for a time period in which the reaction is linear for about 60 minutes. The reaction was then terminated by adding 100 μl of the Malachite Green reagent. […] The data were analyzed by subtracting ‘no Calcineurin blank’ from all the absorbance readings and plotting the background corrected absorbances against Log10 inhibitor concentration. A sigmoidal-dose response curve was fitted to the data using GraphPad Prism Software. […] It exerts its immunosuppressive activity by binding to cyclophilin A to form a complex, which then binds to calcineurin and thereby inhibits calcineurin activity.

[3] = target: T2, cyclophilin A (Cyp A) (Homo sapiens, UniProt P62937); experiment: Protease-free PPIase assay, cyclophilin A; type: biochemical
T2 construct: purchased Sigma C3805
Method in brief: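 Protease-free cis-trans isomerisation: 2 nM recombinant human cyclophilin A with 60 μM succinimide-peptide substrate in 35 mM HEPES pH 7.8 plus DTT, at 10.0 °C, max 0.5% DMSO. Absorbance at 330 nm was fitted to first-order kinetics, background subtracted, and catalytic rates versus inhibitor concentration gave Ki.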

[4] = Water solubility assay (pH 7.8 buffer); type: physicochemical
Method in brief: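 DMSO stocks were diluted into 35 mM HEPES pH 7.8 to final 0–100 μM with 1% DMSO, in triplicate. Plates were shaken 18 h at 25 °C, then precipitation was detected as increased absorbance at 650 nm. Values give the concentration (μM) at which the compound remains in solution.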

T1 sequence (P63098 whole entry, other chains not shown): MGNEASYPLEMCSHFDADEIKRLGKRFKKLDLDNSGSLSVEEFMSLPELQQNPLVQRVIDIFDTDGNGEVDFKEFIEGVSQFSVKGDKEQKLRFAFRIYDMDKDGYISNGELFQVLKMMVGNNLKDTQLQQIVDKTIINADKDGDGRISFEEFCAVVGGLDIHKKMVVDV
T1 sequence (P62937 whole entry, other chains not shown): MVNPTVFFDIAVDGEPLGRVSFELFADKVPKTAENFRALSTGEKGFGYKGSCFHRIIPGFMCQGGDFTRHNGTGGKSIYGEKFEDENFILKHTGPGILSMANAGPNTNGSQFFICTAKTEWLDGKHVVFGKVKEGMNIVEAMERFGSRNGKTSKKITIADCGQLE
T2 sequence (P62937 whole entry): as the sequence (P62937 whole entry, other chains not shown) above
Chain of cyclophilin D (Cyp D) (P30405 30-207): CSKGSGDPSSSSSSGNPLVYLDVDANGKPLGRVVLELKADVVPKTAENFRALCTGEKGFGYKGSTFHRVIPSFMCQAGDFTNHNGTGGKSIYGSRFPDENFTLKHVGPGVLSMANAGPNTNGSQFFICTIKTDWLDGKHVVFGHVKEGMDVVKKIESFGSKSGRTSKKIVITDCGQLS

Row | SMILES | Ki [1] | IC50 [2] | Ki [3] | solubility at 18 h ([4]; pH 7.8) | Ki ([1]; protease-free PPIase assay, class symbols, read-out: CypD Ki) | Ki ([3]; protease-free PPIase assay, class symbols, read-out: CypA Ki) | solubility at 18 h ([4]; 35 mM HEPES buffer, 35 mM HEPES pH 7.8, 1% DMSO, 25° C., 18 h, concentration at which compound remains in solution, read-out: Solubility)
1 | CC(C)C[C@@H]1C(=O)N[C@H](CC(C)C)C(=O)N(C)[C@H](C(C)C)C(=O)N(C)[C@H]([C@H](O)[C@H](C)CCCc2cccc(N3CCOCC3)n2)C(=O)N[C@H]([C@@H](C)O)C(=O)N(C)CC(=O)N(C)[C@@H](CC(C)C)C(=O)N[C@H](CC(C)C)C(=O)N(C)[C@H](CC(C)C)C(=O)N[C@H](C)C(=O)O[C@@H](C(C)C)C(=O)N1C [Example 20, cyclo-[(3R,4R,5S)-4-(hydroxy)-3-methyl-5-(methylamino)-1-(6-morpholin-4-yl-pyridin-2-yl)-heptanoic acid-Thr-Sar-MeLeu-Leu-MeLeu-Ala-D-Hiv-MeLeu-Leu-MeVal]] (cyclo([Hiv][dNMeL][dL][dNMeV][X2][d(aThr)][Sar][NMeL][dL][dNMeL][dA])) |  | > 5000 nM |  |  | 1 to 25 nM | 1 to 25 nM | 10 to 25 µM (≈ 14 to 34.9 µg/mL)
2 | CC(C)C[C@@H]1C(=O)N[C@H](CC(C)C)C(=O)N(C)[C@H](C(C)C)C(=O)N(C)[C@H]([C@H](O)[C@H](C)CCN2CC3CCC(C2)O3)C(=O)N[C@H]([C@@H](C)O)C(=O)N(C)CC(=O)N(C)[C@@H](CC(C)C)C(=O)N[C@H](CC(C)C)C(=O)N(C)[C@H](CC(C)C)C(=O)N[C@H](C)C(=O)O[C@@H](C(C)C)C(=O)N1C [Example 22, cyclo-[(3R,4R,5S)-4-(hydroxy)-3-methyl-5-(methylamino)-1-N-(8-oxa-3-aza-bicyclo[3.2.1]octane)-hexanoic acid-Thr-Sar-MeLeu-Leu-MeLeu-Ala-D-Hiv-MeLeu-Leu-MeVal]] (cyclo([Hiv][dNMeL][dL][dNMeV][X3][d(aThr)][Sar][NMeL][dL][dNMeL][dA])) | 1 to 25 nM | > 10000 nM | 1 to 25 nM | 25 to 50 µM (≈ 33.3 to 66.6 µg/mL) |  |  | 
3 | CC(C)C[C@@H]1C(=O)N[C@H](CC(C)C)C(=O)N(C)[C@H](C(C)C)C(=O)N(C)[C@H]([C@H](O)[C@H](C)CCN2CCS(=O)(=O)CC2)C(=O)N[C@H]([C@@H](C)O)C(=O)N(C)CC(=O)N(C)[C@@H](CC(C)C)C(=O)N[C@H](CC(C)C)C(=O)N(C)[C@H](CC(C)C)C(=O)N[C@H](C)C(=O)O[C@@H](C(C)C)C(=O)N1C [Example 23, cyclo-[(3R,4R,5S)-4-(hydroxy)-3-methyl-5-(methylamino)-1-N-(thiomorpholine 1,1-dioxide)-hexanoic acid-Thr-Sar-MeLeu-Leu-MeLeu-Ala-D-Hiv-MeLeu-Leu-MeVal]] (cyclo([Hiv][dNMeL][dL][dNMeV][X5][d(aThr)][Sar][NMeL][dL][dNMeL][dA])) | 1 to 25 nM | > 10000 nM | 1 to 25 nM | 75 to 100 µM (≈ 102 to 135 µg/mL) |  |  | 

The next lines start with the values.

Row | Ki [1] | IC50 [2] | Ki [3] | solubility at 18 h ([4]; pH 7.8) | Ki ([1]; protease-free PPIase assay, class symbols, read-out: CypD Ki) | Ki ([3]; protease-free PPIase assay, class symbols, read-out: CypA Ki) | solubility at 18 h ([4]; 35 mM HEPES buffer, 35 mM HEPES pH 7.8, 1% DMSO, 25° C., 18 h, concentration at which compound remains in solution, read-out: Solubility) | SMILES
4 | 3.2 nM | 70 nM | 1.7 nM | 10 to 25 µM (≈ 12.5 to 31.2 µg/mL) |  |  |  | C/C=C/C[C@@H](C)[C@@H](O)[C@@H]1C(=O)N[C@H]([C@@H](C)O)C(=O)N(C)CC(=O)N(C)[C@@H](CC(C)C)C(=O)N[C@H](CC(C)C)C(=O)N(C)[C@H](CC(C)C)C(=O)N[C@H](C)C(=O)O[C@@H](C(C)C)C(=O)N(C)[C@H](CC(C)C)C(=O)N[C@H](CC(C)C)C(=O)N(C)[C@H](C(C)C)C(=O)N1C [Example 1, Cyclo-(MeBmt-Thr-Sar-MeLeu-Leu-MeLeu-Ala-D-Hiv-MeLeu-Leu-MeVal), reference compound]
5 | 1 to 25 nM | > 1000 nM | 1 to 25 nM | 10 to 25 µM (≈ 13.1 to 32.8 µg/mL) |  |  |  | CC(C)C[C@@H]1C(=O)N[C@H](CC(C)C)C(=O)N(C)[C@H](C(C)C)C(=O)N(C)[C@H]([C@H](O)[C@H](C)C/C=C/c2ncccn2)C(=O)N[C@H]([C@@H](C)O)C(=O)N(C)CC(=O)N(C)[C@@H](CC(C)C)C(=O)N[C@H](CC(C)C)C(=O)N(C)[C@H](CC(C)C)C(=O)N[C@H](C)C(=O)O[C@@H](C(C)C)C(=O)N1C [Example 15, cyclo-{(3R,4R,5S)-4-(hydroxy)-3-methyl-5-(methylamino)-1-(pyrimidin-2-yl)-hept-1-enoic acid-Thr-Sar-MeLeu-Leu-MeLeu-Ala-D-Hiv-MeLeu-Leu-MeVal}] (cyclo([Hiv][dNMeL][dL][dNMeV][X4][d(aThr)][Sar][NMeL][dL][dNMeL][dA]))
6 | 1 to 25 nM | > 1000 nM | 1 to 25 nM | 10 to 25 µM (≈ 13.3 to 33.2 µg/mL) |  |  |  | Cc1cccc(CCC[C@@H](C)[C@@H](O)[C@@H]2C(=O)N[C@H]([C@@H](C)O)C(=O)N(C)CC(=O)N(C)[C@@H](CC(C)C)C(=O)N[C@H](CC(C)C)C(=O)N(C)[C@H](CC(C)C)C(=O)N[C@H](C)C(=O)O[C@@H](C(C)C)C(=O)N(C)[C@H](CC(C)C)C(=O)N[C@H](CC(C)C)C(=O)N(C)[C@H](C(C)C)C(=O)N2C)n1 [Example 17] (cyclo([Hiv][dNMeL][dL][dNMeV][X1][d(aThr)][Sar][NMeL][dL][dNMeL][dA]))

Source: patent US9382295B2, “Cyclic depsipeptide compounds and their uses” (Cypralis Limited, priority 2012, dated 2016)
